Laboratory results: the supplement of paper PMC10307832

Columns and labels:
Experiment in all cases: relative viability (nuclei count vs DMSO), 5 days (fraction); higher = more cells survive
[1] = compound: C1CSC2=C(C(=O)N1)SC3=C2C=C(C=C3)O [kb NB 142-70] + Cc1nc(NC(=O)N2CCC[C@H]2C(N)=O)sc1-c1ccnc(C(C)(C)C(F)(F)F)c1 [Alpelisib] (partner 2 µM)
Method in brief: (§1)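 Dosing by pin tool came one day after lung cancer cell lines were seeded in 1536-well plates, using either one drug or a fixed anchor-drug dose plus five library-drug doses (not always all listed) in √10 steps. After 5 days, nuclei were counted on 4× images. Relative viability is treated-well nuclei count divided by vehicle-well nuclei count, and values are medians of duplicate plates.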

[2] = compound: C1CSC2=C(C(=O)N1)SC3=C2C=C(C=C3)O [kb NB 142-70] + Nc1nc2[nH]cc(CCc3ccc(C(=O)N[C@@H](CCC(=O)O)C(=O)O)cc3)c2c(=O)[nH]1 [Pemetrexed] (partner 0.2 µM)
Method in brief: as §1

[3] = compound: NCC(=O)Nc1ccc(-n2nc(C(F)(F)F)cc2-c2ccc3c(ccc4ccccc43)c2)cc1 + CS(=O)(=O)CCNCc1ccc(-c2ccc3ncnc(Nc4ccc(OCc5cccc(F)c5)c(Cl)c4)c3c2)o1 [Lapatinib] (partner 2 µM)
Method in brief: as §1

[4] = compound: NCC(=O)Nc1ccc(-n2nc(C(F)(F)F)cc2-c2ccc3c(ccc4ccccc43)c2)cc1 + Nc1nc2[nH]cc(CCc3ccc(C(=O)N[C@@H](CCC(=O)O)C(=O)O)cc3)c2c(=O)[nH]1 [Pemetrexed] (partner 0.2 µM)
Method in brief: as §1

UMC-11
relative viability ([1]; first compound 0.1 µM): 0.96 | relative viability ([1]; first compound 1 µM): 0.959 | relative viability ([1]; first compound 3.162 µM): 0.418 | relative viability ([2]; first compound 0.1 µM): 0.861 | relative viability ([2]; first compound 1 µM): 0.779 | relative viability ([2]; first compound 3.162 µM): 0.549 | relative viability ([3]; first compound 0.02 µM): 0.952 | relative viability ([3]; first compound 0.06325 µM): 1.09 | relative viability ([3]; first compound 0.2 µM): 0.985 | relative viability ([3]; first compound 0.6325 µM): 1.15 | relative viability ([3]; first compound 2 µM): 0.898 | relative viability ([4]; first compound 0.02 µM): 0.835 | relative viability ([4]; first compound 0.06325 µM): 0.699 | relative viability ([4]; first compound 0.2 µM): 0.905 | relative viability ([4]; first compound 0.6325 µM): 0.853 | relative viability ([4]; first compound 2 µM): 0.759
